Reference: publication PMC6433232, “Targeting mitochondria in cancer therapy could provide a basis for the selective anti-cancer activity” (PLoS ONE, 2019)
Where two headings read alike, the source gives them in different places.

Tests used:
[1] = test system: MIA PaCa-2 cells; assay: Hydrogen peroxide cell-based assay (ROS induction), MIA PaCa-2 cells; details: Homo sapiens, hydrogen peroxide level relative to DMSO-treated cells (100%), read-out: ROS increase, % MIA PaCa-2
Description: (§1) Cells were incubated for 2 h with either compounds (30 μM) or DMSO in a 96-well plate. After the treatment, 80 μl of cell culture medium was collected and the level of hydrogen peroxide was determined using a Hydrogen Peroxide Cell-Based Assay kit (Cayman).
(§2) Cells were incubated with the compounds for 4 h and the level of ROS induction was measured by a hydrogen peroxide cell-based assay kit. Compounds were assayed at a fixed concentration of 30 μM and the measured level of hydrogen peroxide was expressed as percentage in relation to DMSO-treated cells (100%). […] This distinction was more evident for compounds with the highest selective cytotoxicity index. […] We conclude that the selective induction of ROS in cancer cells is required but not sufficient factor for the selective anti-tumor activity.

[2] = test system: breast carcinoma HCC1187 cells; assay: cells; type: cell-based; details: for CC50: Homo sapiens; for Selective cytotoxicity index HCC 1187 ATO: human
Text: For further analyses, we used compounds that have the selective cytotoxicity index either above 20 (non-toxic compounds) or below 1 (toxic compounds) with the aim to identify targets that are responsible for the selective activity of the identified compounds toward cancer cells. To confirm that the effects of the selected compounds are not only specific to MIA PaCa-2 cells, we evaluated their cytotoxic activities on breast carcinoma HCC1187 cells (Table 1). […] For easy comparison, the data with MIA PaCa-2 cells were also included in Table 1. […] We also noticed that, again with a few exceptions, HCC1187 cells are more resistant to the non-toxic compounds in the presence of ATO as compared to MIA PaCa-2 cells. In contrast, HCC1187 cells are more sensitive to all toxic compounds in the presence of ATO as compared to MIA PaCa-2 cells. The high sensitivity of HCC1187 cells to toxic compounds contributed to the increased selective cytotoxicity index.

[3] = test system: hepatocytes; assay: Hydrogen peroxide cell-based assay (ROS induction), hepatocytes; design: species or system Human; details: 30 μM; hydrogen peroxide level relative to DMSO-treated cells (100%)
Description: as §1, §2

[4] = test system: pancreatic cancer MIA PaCa-2 cells; assay: cells; details: for EC50 / CC50: Homo sapiens; for EC50: MIA PaCa-2, read-out: EC50, μM MIA PaCa-2; for CC50: MIA PaCa-2, read-out: LC50 MIA PaCa-2
Description: Fig 1 A, Structure of NSC130362. B, Dose response curve of NSC130362 in MIA PaCa-2 cells. Cells were pre-incubated with NSC130362 for 2 h followed by addition of ATO (5 μM) and incubation for an additional 24 h. At the end of the treatment, the ratio of dead cells was determined by a CellTiterGlo reagent.

[5] = test system: Complex I (bovine heart mitochondria); assay: MitoCheck Complex I activity assay; details: 30 μM; for Mito Check I, enzyme residual activity as compared to DMSO-treated sample: bovine heart mitochondria, NADH oxidation
Description: MitoCheck Complex I activity was determined as described in the manual of the manufacturer’s manual (Cayman). Briefly, compounds (30 μM) or DMSO were mixed with the Complex I activity assay buffer that contained bovine heart mitochondria reagent, NADH, and ubiquinone in the presence of KCN to inhibit complex IV activity. The level of Complex I activity was monitored in a kinetic assay of NADH oxidation by measuring a decrease in absorbance at 340 nm. The residual Complex I activity was calculated by dividing the rate of compound wells by the rate of DMSO wells for the linear portion of the curve.
To test possible effects of compounds on ETC, we analyzed the Complex I-mediated NADH oxidation using a MitoCheck Complex I Activity Assay Kit. The level of NADH oxidation was measured by a decrease in absorbance at 340 nm and expressed as percentage of residual activity in relation to DMSO-treated mitochondria (Table 1). […] Complex I activity was estimated by the rate of NADH oxidation which was also affected by NADH/NADPH-dehydrogenase-mediated redox cycling.

[6] = test system: human primary hepatocytes; details: for EC50: read-out: EC50, μM Hepatocytes ATO, in the presence of ATO (5 μM), SD does not exceed 10%
Description: We selected hepatocytes as normal cells because hepatocytes are mediate toxicity to multiple drugs and are used as a standard to assess toxicity of drugs in vitro [28]. […] For comparison with the standard of care, doxorubicin was also included in this analysis.

[7] = in words; cited from earlier work
[8] = in words; cited from earlier work; remark: listed apart in the source
[9] = test system: chemotherapy resistant prostate carcinoma cells; assay: Combined treatment with ATO, docetaxel, MDV3100, prostate cancer cells; type: cell-based; details: NSC130362 10 μM 2 h
Description: Fig 3 Combined treatment of NSC130362 with ATO, docetaxel, and MDV3100 against prostate cancer cells. Cells were pre-incubated with NSC130362 (10 μM) for 2 h followed by addition of drugs (10 μM) and incubation for an additional 24 h. […] The first bar in the treatment of each cell line is NSC130362 alone. *, P<0.05.

[10] = test system: PANC1 pancreatic carcinoma cells; assay: Combined treatment with pancreatic cancer drugs, PANC1 cells; type: cell-based, Human; details: NSC130362 10 μM 2 h, then drugs 10 μM 24 h
Description: (§3) Fig 2 Combined treatment of NSC130362 with pancreatic cancer drugs against PANC1 and YAPC cells. Cells were pre-incubated with NSC130362 (10 μM) for 2 h followed by addition of drugs (10 μM) and incubation for an additional 24 h. […] The first bar is NSC130362 alone. *, P<0.05.

[11] = test system: YAPC pancreatic carcinoma cells; assay: Combined treatment with pancreatic cancer drugs, YAPC cells; type: cell-based, Human; details: NSC130362 10 μM 2 h, then drugs 10 μM 24 h
Description: as §3

[12] = HCC1187, compound alone, unit not given in Table 1, read-out: LC50 HCC1187
[13] = HCC1187, read-out: LC50 HCC1187

SMILES	activity at 30 µM [1] [%]	CC50 [2, 12] [µM]	ROS increase, % Hepatocytes [3] [%]	EC50 [4] [µM]	CC50 [4] [µM]	stimulation of Complex I activity [5]	Mito Check I, enzyme residual activity as compared to DMSO-treated sample [5] [%]	also measured
NC1=C(Cl)C(=O)c2ccccc2C1=O [compound 1, 2-chloro-3-amino-1,4-NQ]	331	10.8	156	8.4	8.4	more than 30%	145	
CCNC1=C(Cl)C(=O)c2ccccc2C1=O [compound 3]	182	23.6	115	59	59		93	
CCCCCCCNC1=C(Cl)C(=O)c2ccccc2C1=O [compound 8]	110	56.1	115	> 90	> 90		116	
CC(C)(C)NC1=C(Cl)C(=O)c2ccccc2C1=O [compound 13]	248	28.7	123	7.2	7.2		84	
CC1CN1C1=C(Cl)C(=O)c2ccccc2C1=O (centres unmarked) [compound 16]	637			6.9	6.9		58	CC50 [2, 13]: 3.6 µM; Selective cytotoxicity index HCC 1187 ATO [2]: 128.6; toxicity against normal cells ([6]; hepatocytes, in words): completely non-toxic against normal cells
O=C1C(Cl)=C(NCCO)C(=O)c2ccccc21 [compound 17]	295	19.2	132	9.8	9.8		38	Selective cytotoxicity index HCC 1187 ATO [2]: 46.7; half-life in the mouse bloodstream [7]: short half-life; anti-tumor activity in vivo [8]: demonstrated anti-tumor activity in vivo; potentiation of docetaxel-induced cytotoxicity ([9]; then docetaxel 10 μM 24 h): potentiated docetaxel-induced cytotoxicity, but to a lesser extent; potentiation of ATO or MDV3100 effect on cell viability ([9]; then drugs 10 μM 24 h): efficiently potentiated the effect on cell viability of either ATO or MDV3100; dose-response in MIA PaCa-2 cells ([4]; in the presence of ATO (5 μM), 24 h): induced a dose-response over a hundred-fold concentration range; effect on apoptosis induction by pancreatic cancer drugs, PANC1 [10]: significantly increased the ability of all tested pancreatic cancer drugs; effect on apoptosis induction by pancreatic cancer drugs, YAPC [11]: significantly increased the ability of all tested pancreatic cancer drugs
COCCNC1=C(Cl)C(=O)c2ccccc2C1=O [compound 21]	254	5.2	154	13.8	13.8		104	increase in toxicity to hepatocytes ([6]; versus compound 3): approximately 3 fold
CCCCOCCCNC1=C(Cl)C(=O)c2ccccc2C1=O [compound 26]	889	1.7	191	26.6	26.6		112	
CCCC(=O)NC1=C(Cl)C(=O)c2ccccc2C1=O [compound 31]	251	1	228	10.4	10.4	more than 30%	159	
CCCCC(=O)NC1=C(Cl)C(=O)c2ccccc2C1=O [compound 32]	506	0.3	249	10.2	10.2	more than 30%	135	
O=C1C(Cl)=C(NCCc2ccccc2)C(=O)c2ccccc21 [compound 36]	721		178	16.2	16.2	more than 30%	135	
O=C1C(Cl)=C(Nc2nccs2)C(=O)c2ccccc21 [compound 38]	100	20.3	100	> 90			105	
O=C1C(Cl)=C(Nc2ccccc2)C(=O)c2ccccc21 [compound 39]		1.7	174	3.9	3.9		91	reduced anti-cancer activity ([4]; versus compound 1): 8 fold; inhibition of mitochondrial function (Complex I) [5]: 9%
Cc1ccccc1NC1=C(Cl)C(=O)c2ccccc2C1=O [compound 40]	111	9	122	78.5	78.5		103	
COC1=C(N(C)C)C(=O)c2ccccc2C1=O [compound 53]	446	> 90	117	23.4	23.4		51	Selective cytotoxicity index HCC 1187 ATO [2]: 9.5
COC1=C(N2CC2)C(=O)c2ccccc2C1=O [compound 54]	675			7.5	7.5		84	CC50 [2, 13]: 18.2 µM; Selective cytotoxicity index HCC 1187 ATO [2]: 40.9
CC1=C(N2CC2)C(=O)c2ccccc2C1=O [compound 55]	416			3.1	3.1		72	CC50 [2, 13]: 51.8 µM; Selective cytotoxicity index HCC 1187 ATO [2]: 15.8; reduction in toxicity to hepatocytes ([6]; versus compound 15): more than 10 fold; increase in anti-cancer activity ([4]; versus compound 15): 2 fold
O=C1C=C(SCCO)C(=O)c2ccccc21 [compound 60]		0.6	386	6.2	6.2	more than 30%	212	EC50 [6]: 1.7 µM
CCNC1=CC(=O)c2ncccc2C1=O [compound 66]	626	13.2	173	4.5	4.5	more than 30%	158	EC50 [6]: > 90 µM; improved anti-cancer activity ([4]; versus compound 49): more than 30 fold
O=C1C(Nc2ccccc2)=CC(=O)c2ncccc21 [compound 67, reference compound]	783	3	179	1	1		116	EC50 [6]: 19.4 µM; decrease in toxicity to hepatocytes ([6]; versus compound 64): 3 fold; increase in anti-cancer activity ([4]; versus compound 64): approximately 10 fold
